Data as given in PubChem BioAssay AID2060884 (Molecular Pharmacology Branch, DTP, NCI, 2025).
Several values for one entry are separate records, joined by “and”; a condition that tells them apart may be missing. Identical values can stand only once.

Tested on: NCI-H929 complex spheroids, viability % test/control
Experiment: Anticancer human tumor NCI-H929 cell line growth inhibition [RAS];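 further: compound exposure lasted seven days before viability was read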;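 on viability, T/C: 100% = DMSO vehicle control viability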
Details: for viability, T/C: stronger effect = lower value
Summary of the method: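 Multi-cell-type spheroids: tumor cells plus HUVEC endothelial cells and mesenchymal stem cells. RAS-pathway inhibitors were combined with targeted agents, each dosed in half-log steps down from clinical Cmax, or from 10 microM when Cmax was unknown.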

[1] = curve of first compound, second compound 0.0316 µM
[2] = curve of first compound, second compound 0.1 µM
[3] = curve of first compound, second compound 0.316 µM
[4] = curve of first compound, second compound 1 µM
[5] = curve of first compound, second compound 3.16 µM
[6] = curve of first compound, second compound 10 µM
[7] = second compound 0.0316 µM, first compound 0.0316 µM
[8] = second compound 0.0316 µM, first compound 0.1 µM
[9] = second compound 0.0316 µM, first compound 0.316 µM
[10] = second compound 0.0316 µM, first compound 1 µM
[11] = second compound 0.1 µM, first compound 0.0316 µM
[12] = second compound 0.1 µM, first compound 0.1 µM
[13] = second compound 0.1 µM, first compound 0.316 µM
[14] = second compound 0.1 µM, first compound 1 µM
[15] = second compound 0.316 µM, first compound 0.0316 µM
[16] = second compound 0.316 µM, first compound 0.1 µM
[17] = second compound 0.316 µM, first compound 0.316 µM
[18] = second compound 0.316 µM, first compound 1 µM
[19] = second compound 1 µM, first compound 0.0316 µM
[20] = second compound 1 µM, first compound 0.1 µM
[21] = second compound 1 µM, first compound 0.316 µM
[22] = second compound 1 µM, first compound 1 µM

C=CC(=O)Nc1cc(Nc2nccc(-c3cn(C)c4ccccc34)n2)c(OC)cc1N(C)CCN(C)C + C#Cc1c(F)ccc2cc(O)cc(-c3ncc4c(N5CC6CCC(C5)N6)nc(OCC56CCCN5CC(F)C6)nc4c3F)c12
IC50 [1]: > 1 µM
IC50 [2]: > 1 µM
IC50 [3]: > 1 µM
IC50 [4]: > 1 µM
IC50 [5]: > 1 µM
IC50 [6]: > 1 µM
viability, T/C (second compound 0.0316 µM, first compound 0.00316 µM): 101%
viability, T/C (second compound 0.0316 µM, first compound 0.01 µM): 94.1%
viability, T/C [7]: 101%
viability, T/C [8]: 95.4%
viability, T/C [9]: 99.7%
viability, T/C [10]: 98.8%
viability, T/C (second compound 0.1 µM, first compound 0.00316 µM): 96.8%
viability, T/C (second compound 0.1 µM, first compound 0.01 µM): 97.5%
viability, T/C [11]: 102%
viability, T/C [12]: 98.6%
viability, T/C [13]: 101%
viability, T/C [14]: 102%
viability, T/C (second compound 0.316 µM, first compound 0.00316 µM): 98.1%
viability, T/C (second compound 0.316 µM, first compound 0.01 µM): 101%
viability, T/C [15]: 103%
viability, T/C [16]: 99.2%
viability, T/C [17]: 104%
viability, T/C [18]: 101%
viability, T/C (second compound 1 µM, first compound 0.00316 µM): 94%
viability, T/C (second compound 1 µM, first compound 0.01 µM): 97.2%
viability, T/C [19]: 106%
viability, T/C [20]: 102%
viability, T/C [21]: 102%
viability, T/C [22]: 102%
viability, T/C (second compound 3.16 µM, first compound 0.00316 µM): 101%
viability, T/C (second compound 3.16 µM, first compound 0.01 µM): 97.8%
viability, T/C (second compound 3.16 µM, first compound 0.0316 µM): 103%
viability, T/C (second compound 3.16 µM, first compound 0.1 µM): 98.8%
viability, T/C (second compound 3.16 µM, first compound 0.316 µM): 102%
viability, T/C (second compound 3.16 µM, first compound 1 µM): 104%
viability, T/C (second compound 10 µM, first compound 0.00316 µM): 94%
viability, T/C (second compound 10 µM, first compound 0.01 µM): 98.8%
viability, T/C (second compound 10 µM, first compound 0.0316 µM): 94.8%
viability, T/C (second compound 10 µM, first compound 0.1 µM): 102%
viability, T/C (second compound 10 µM, first compound 0.316 µM): 99.1%
viability, T/C (second compound 10 µM, first compound 1 µM): 98.3%

CC(C)NCC(C(=O)N1CCN(c2ncnc3c2C(C)CC3O)CC1)c1ccc(Cl)cc1 (configuration not stated)
viability, T/C (compound 0.0316 µM): 106% [middle of 4 runs]
viability, T/C (compound 0.1 µM): 102% [middle of 4 runs]
viability, T/C (compound 0.316 µM): 108% (2×) and 99.3% and 103%
viability, T/C (compound 1 µM): 104% (2×) and 62.6% and 71.6%
viability, T/C (compound 10 µM): 12.8% [middle of 4 runs]
IC50 (curve of compound): 3.45 µM [middle of 4 runs]

CC1(C)CCC(Nc2ncc(C(F)(F)F)c(-c3c[nH]c4c(P(C)(C)=O)c(C#N)ccc34)n2)CN1 (configuration not stated) + C#Cc1c(F)ccc2cc(O)cc(-c3ncc4c(N5CC6CCC(C5)N6)nc(OCC56CCCN5CC(F)C6)nc4c3F)c12
IC50 [1]: 0.00601 µM
IC50 [2]: 0.00655 µM
IC50 [3]: 0.00656 µM
IC50 [4]: 0.00655 µM
IC50 [5]: 0.0068 µM
IC50 [6]: 0.0068 µM
viability, T/C (second compound 0.0316 µM, first compound 0.000949 µM): 129%
viability, T/C (second compound 0.0316 µM, first compound 0.003 µM): 98.5%
viability, T/C (second compound 0.0316 µM, first compound 0.00949 µM): 17.9%
viability, T/C (second compound 0.0316 µM, first compound 0.03 µM): 12.8%
viability, T/C (second compound 0.0316 µM, first compound 0.0949 µM): 8.56%
viability, T/C (second compound 0.0316 µM, first compound 0.3 µM): 5.72%
viability, T/C (second compound 0.1 µM, first compound 0.000949 µM): 124%
viability, T/C (second compound 0.1 µM, first compound 0.003 µM): 116%
viability, T/C (second compound 0.1 µM, first compound 0.00949 µM): 18.6%
viability, T/C (second compound 0.1 µM, first compound 0.03 µM): 13.8%
viability, T/C (second compound 0.1 µM, first compound 0.0949 µM): 8.47%
viability, T/C (second compound 0.1 µM, first compound 0.3 µM): 5.88%
viability, T/C (second compound 0.316 µM, first compound 0.000949 µM): 127%
viability, T/C (second compound 0.316 µM, first compound 0.003 µM): 114%
viability, T/C (second compound 0.316 µM, first compound 0.00949 µM): 19.6%
viability, T/C (second compound 0.316 µM, first compound 0.03 µM): 18%
viability, T/C (second compound 0.316 µM, first compound 0.0949 µM): 8.37%
viability, T/C (second compound 0.316 µM, first compound 0.3 µM): 5.86%
viability, T/C (second compound 1 µM, first compound 0.000949 µM): 121%
viability, T/C (second compound 1 µM, first compound 0.003 µM): 112%
viability, T/C (second compound 1 µM, first compound 0.00949 µM): 19.3%
viability, T/C (second compound 1 µM, first compound 0.03 µM): 48.8%
viability, T/C (second compound 1 µM, first compound 0.0949 µM): 9.11%
viability, T/C (second compound 1 µM, first compound 0.3 µM): 5.75%
viability, T/C (second compound 3.16 µM, first compound 0.000949 µM): 127%
viability, T/C (second compound 3.16 µM, first compound 0.003 µM): 118%
viability, T/C (second compound 3.16 µM, first compound 0.00949 µM): 22.1%
viability, T/C (second compound 3.16 µM, first compound 0.03 µM): 22.5%
viability, T/C (second compound 3.16 µM, first compound 0.0949 µM): 9.71%
viability, T/C (second compound 3.16 µM, first compound 0.3 µM): 6.25%
viability, T/C (second compound 10 µM, first compound 0.000949 µM): 125%
viability, T/C (second compound 10 µM, first compound 0.003 µM): 104%
viability, T/C (second compound 10 µM, first compound 0.00949 µM): 23.3%
viability, T/C (second compound 10 µM, first compound 0.03 µM): 63.5%
viability, T/C (second compound 10 µM, first compound 0.0949 µM): 14.7%
viability, T/C (second compound 10 µM, first compound 0.3 µM): 10.9%

CC(C)NCC(C(=O)N1CCN(c2ncnc3c2C(C)CC3O)CC1)c1ccc(Cl)cc1 (configuration not stated) + C=CC(=O)N1CCN(c2nc(OCC3CCCN3C)nc3c(F)c(-c4nc(N)cc(C)c4C(F)(F)F)c(Cl)cc23)C(C)C1
IC50 (curve of first compound, second compound 0.00316 µM): 2.82 µM
IC50 (curve of first compound, second compound 0.01 µM): 3.07 µM
IC50 [1]: 4.68 µM
IC50 [2]: 4.08 µM
IC50 [3]: 2.49 µM
IC50 [4]: 3.66 µM
viability, T/C (second compound 0.00316 µM, first compound 0.0316 µM): 102%
viability, T/C (second compound 0.00316 µM, first compound 0.1 µM): 101%
viability, T/C (second compound 0.00316 µM, first compound 0.316 µM): 108%
viability, T/C (second compound 0.00316 µM, first compound 1 µM): 101%
viability, T/C (second compound 0.00316 µM, first compound 3.16 µM): 44.4%
viability, T/C (second compound 0.00316 µM, first compound 10 µM): 12.1%
viability, T/C (second compound 0.01 µM, first compound 0.0316 µM): 103%
viability, T/C (second compound 0.01 µM, first compound 0.1 µM): 103%
viability, T/C (second compound 0.01 µM, first compound 0.316 µM): 105%
viability, T/C (second compound 0.01 µM, first compound 1 µM): 104%
viability, T/C (second compound 0.01 µM, first compound 3.16 µM): 48.5%
viability, T/C (second compound 0.01 µM, first compound 10 µM): 15.1%
viability, T/C [7]: 97.5%
viability, T/C [8]: 103%
viability, T/C [9]: 108%
viability, T/C [10]: 103%
viability, T/C (second compound 0.0316 µM, first compound 3.16 µM): 67.6%
viability, T/C (second compound 0.0316 µM, first compound 10 µM): 16.1%
viability, T/C [11]: 101%
viability, T/C [12]: 105%
viability, T/C [13]: 110%
viability, T/C [14]: 108%
viability, T/C (second compound 0.1 µM, first compound 3.16 µM): 60%
viability, T/C (second compound 0.1 µM, first compound 10 µM): 15.2%
viability, T/C [15]: 102%
viability, T/C [16]: 105%
viability, T/C [17]: 109%
viability, T/C [18]: 106%
viability, T/C (second compound 0.316 µM, first compound 3.16 µM): 35.4%
viability, T/C (second compound 0.316 µM, first compound 10 µM): 15.4%
viability, T/C [19]: 114%
viability, T/C [20]: 115%
viability, T/C [21]: 108%
viability, T/C [22]: 108%
viability, T/C (second compound 1 µM, first compound 3.16 µM): 56.3%
viability, T/C (second compound 1 µM, first compound 10 µM): 6.44%
